Entries after “also recorded” stand apart in the source; their conditions may differ.
Assays:
[1] = tested on: TAA induced fibrotic livers; test: Thioacetamide (TAA)-induced chronic liver fibrosis rat model: gross examination and histopathology (H&E, Masson's trichrome, Metavir score); format: in vivo, Wistar rats
Experimental: (§1) 5 ml/kg of thioacetamide (TAA) was injected intraperitoneally into Wistar rats every three days for eight weeks to induce the liver damage. The therapy was performed starting from the fifth week during the thioacetamide induction. 80 mg/Kg/day or 500 mg/Kg/day of n-BP were orally administrated in experimental rats for four weeks.
(§2) To establish the chronic liver fibrosis model in rat, adult male Wistar rats (320±20 g) were used and were intraperitoneally injected with 200 mg/kg TAA (Sigma-Aldrich) once every 3 days for 8 weeks as the liver fibrosis model (78 rats). In the Normal group (24 rats), normal saline was used in place of the TAA. At the end of 4, 6, 8, and 10 weeks (i.e., day 28, 42, 56, and 70 respectively), these rats were sacrificed and cardiac blood samples were collected. These samples were analyzed with a biochemical analyzer (Integra 800; Roche, Holliston, Mass., USA) to measure the liver function index, which included glutamate oxaloacetate transaminase (GOT), glutamate pyruvate transaminase (GPT), serum albumin, total bilirubin and prothrombin time.
Afterwards, the histopathology of liver tissue samples obtained from the sacrificed rats were also analyzed. Liver tissue samples were fixed in 3.7% formaldehyde and then embedded in paraffin. Serial 3-μm sections of the embedded tissues were stained with hematoxylin and eosin or Masson's trichrome. Liver fibrosis is the excessive accumulation of collagen in liver, and therefore the accumulation of collagen is an important index for evaluating liver fibrosis. Masson's trichrome stain is frequently used to identify increases in collagenous tissue in fibrotic liver. For Masson's trichrome stain, sectioned samples were placed in Bouin's solution (Sigma-Aldrich) at 56° C. for 1 h and then were stained sequentially with the following solutions: Mayer's hematoxylin solution (Sigma-Aldrich) for 5 min, Biebrich scarlet-acid fuchsin solution (Sigma-Aldrich) for 15 min, phosphomolybdic acid-phosphotungstic acid (Sigma-Aldrich) for 15 min, and aniline blue (Sigma-Aldrich) for 5 min.
(§3) 78 rats with TAA induced fibrotic livers were randomly divided into 4 groups. For group 1 (TAA group), there were 24 rats which received no therapy. The remaining […] were divided into three groups: Control group, n-BP treated group I (BP 80 mg/kg group) and n-BP treated group II (BP 500 mg/kg group). For these three groups, from the beginning of week 5 to the end of week 8, olive oil, n-BP (80 mg/Kg/day), and n-BP (500 mg/Kg/day) were orally administrated once per day to the rats, wherein the dosage was 1 ml of olive oil per kilogram body weight (Control group), 1 ml of 80 mg/ml n-BP olive oil solution per kilogram body weight (BP 80 mg/kg group), and 1 ml of 500 mg/ml n-BP olive oil solution per kilogram of body weight (BP 500 mg/kg group), respectively. n-BP was purchased from Alfa Aesar®, cat. A10353.
(§4) At the end of 6, 8, and 10 weeks, rats of each group were sacrificed and cardiac blood samples were collected. These samples were analyzed with a biochemical analyzer (Integra 800; Roche, Holliston, Mass., USA) to measure the liver function index, which included glutamate oxaloacetate transaminase (GOT), glutamate pyruvate transaminase (GPT), serum albumin, and prothrombin time. Afterwards, the histopathology of liver tissue samples obtained from the sacrificed rats was also analyzed. Liver tissue samples were fixed in 3.7% formaldehyde and then embedded in paraffin. Serial 3-μm sections of the embedded tissues were stained with hematoxylin and eosin or Masson's trichrome as described above.

[2] = tested on: TAA induced fibrotic livers; test: Thioacetamide (TAA)-induced chronic liver fibrosis rat model: liver function index in blood (GOT, GPT, total bilirubin, albumin, prothrombin time); format: in vivo, Wistar rats
Experimental: as §1, §2, §3, §4

angina = conditions: conscious rats; cited from earlier work
[3] = tested on: alcoholic-induced liver cirrhosis; conditions: patients with alcoholic-induced liver cirrhosis; cited from earlier work
[4] = both n-BP treated groups, end of week 10

| SMILES | gross examination of the liver ([1]; BP 80 mg/kg group (No. 73, 78) and BP 500 mg/kg group (No. 81, 87)) | inflammatory activity scores (Metavir) ([1]; n-BP 80 or 500 mg/Kg/day oral) | fibrosis grade (Metavir), Masson's trichrome staining ([1]; n-BP 80 or 500 mg/Kg/day oral, weeks 5-8, on 42, 56 and 70 days, control group grade 3-4) | fibrosis score versus control group (olive oil) ([1]; n-BP 80 or 500 mg/Kg/day oral, 42, 56 and 70 days) | collagen accumulation in liver (Masson's trichrome staining) ([1]; n-BP 80 or 500 mg/Kg/day oral, 42, 56 and 70 days (weeks 6, 8, 10)) | liver damage in hematoxylin and eosin stained sections ([1]; n-BP 80 or 500 mg/Kg/day oral, end of 8 weeks and 10 weeks) | inflammation and accumulation of collagen fibers (histopathological examinations) ([1]; therapy groups, n-BP 80 or 500 mg/Kg/day oral for four weeks) | serum total bilirubin level ([2]; both n-BP treated groups, end of week 6 (two weeks after treatments) continuing to end of week 10) | prothrombin time [2, 4] | serum GOT level [2, 4] | serum GPT level [2, 4] | serum total bilirubin level versus Control group [2, 4] | prothrombin time ([2]; both n-BP treated groups, from the end of week 6) | liver function index including GOT, GPT, albumin, total bilirubin and prothrombin time, versus control group ([2]; n-BP 80 or 500 mg/Kg/day oral for four weeks) | serum albumin level ([2]; n-BP treated groups, end of week 10) [g/dL] | albumin level ([2]; n-BP treated groups, ends of week 6 and week 8) | antianginal effect (angina) | effect on blood pressure or heart rate (angina) | mortality [3] |
| --- | --- | --- | --- | --- | --- | --- | --- | --- | --- | --- | --- | --- | --- | --- | --- | --- | --- | --- | --- |
| CCCC=C1OC(=O)c2ccccc21 [n-BP, n-butylidenephthalide] | become even better like normal liver morphology | improvement in the recovery of the damaged liver occurs 2 weeks after n-BP treatment | 1-2 | lower | Collagen degradation was found; also recorded: almost no collagen accumulation | recovery from tissue degeneration and vacuolation was evident | significantly reduced | decline at the end of week 6 | decreased to approach that of the Normal group | decline to near-normal values | decline to near-normal values | significantly lower | decreases | significant recovery of liver damage | 4.35 ± 0.47 | rises | relieves angina | without affecting blood pressure or the heart rate |  |
| CC(=O)CCCCn1c(=O)c2c(ncn2C)n(C)c1=O [Pentoxifylline] |  |  |  |  |  |  |  |  |  |  |  |  |  |  |  |  |  |  | significantly reduce the mortality |

Source: US8927601B2, “Uses of N-butylidenephthalide in treating a liver injury and improving liver function” (National Dong Hwa University, priority 2011, dated 2015)
